# pIC50: −log10 of the molar value.
# System: P. falciparum 3D7 growth, pLDH absorbance
# Experiment: P. falciparum 3D7 growth inhibition, dose response, strain 3D7 (AID 2305)
row,SMILES,pIC50
1,c1ccc2c(Nc3ccc(OCCOCCOc4ccc(Nc5c6ccccc6nc6ccccc56)cc4)cc3)c3ccccc3nc2c1,6.55
2,Cn1cc(CCNc2ccnc(NCCc3coc4ccccc34)n2)c2ccccc21,5.97
3,CCOC(C(=O)OCC1CCCN1C(C)C)(c1ccccc1)c1ccccc1 (centres undefined),6.12
4,CN1CCN(c2cc(NC(=O)Nc3cccc(Cl)c3Cl)ccc2Cl)CC1,6.14
5,NC[C@H](CC1CCCCC1)NC(=O)c1ccc(-c2ccnc3[nH]ccc23)s1,6.02
6,NS(=O)(=O)c1cccc(-c2ccc3nccc(-c4cccc(S(N)(=O)=O)c4)c3c2)c1,5.90
7,CCN(CC)c1cc(C)c2cc(NC(=O)c3cc(=O)c4ccccc4o3)ccc2n1,6.66
8,Clc1ccc2nnc(-c3c(Cl)cccc3Cl)n2n1,6.04
9,Cc1[nH]c2cc(F)ccc2c1C1=CCN(CCCCC2(C)C(=O)Nc3c(F)cccc32)CC1 (centres undefined),6.40
10,CC1CCC2(CC1)N=C(N)N=C(N)N2OCc1ccc(Br)c2ccccc12 (centres undefined),6.66
11,COc1ccc(Cc2cccc(C(C(=O)NCc3cc(Cl)cc(Cl)c3)N3CCN(C)CC3)c2)cc1 (centres undefined),6.16
12,NC(=O)C1CCN(Cc2ccc(-c3ccc(-c4nc5ccc(C(F)(F)F)cc5[nH]4)s3)cc2)CC1,6.27
13,COc1ccc2nc(C)cc(NN=Cc3ccc([N+](=O)[O-])o3)c2c1,6.15
14,CCCCOc1c(CCNCCCCNCCc2cc(OC)c3ccccc3c2OCCCC)cc(OC)c2ccccc12,6.04
15,O=C(NCCc1ccc(Cl)c(Cl)c1)[C@@H]1CCCN1C(=O)c1ccc(O)c(-c2ccc(Cl)c(Cl)c2)c1,6.26
16,CCN(CC)S(=O)(=O)n1ncc2c3c(N)nc(N)nc3ccc21,7.30
17,O=C(Nc1ccc(CCNCc2ccccc2)cc1)Nc1ccc(OC(F)(F)F)cc1,6.24
18,O=C(c1ccc2ccccc2n1)N1CCCc2cc(Br)ccc21,6.07
19,Fc1ccc(N(c2nc(-c3cc(F)cc(C(F)(F)F)c3)cs2)C2CCNCC2)cc1,6.02
20,COc1cc(F)c2ncc(Cl)c(CCN3CCC(NCc4ccc5c(c4)NC(=O)CS5)CC3)c2c1,6.51
21,c1cc(Nc2nccc(-c3cnn4ncccc34)n2)cc(-c2cnco2)c1,6.16
22,CCCCCCc1cc(O)c2c3c(c(=O)oc2c1)CCN(C)C3,6.17
23,NC(=O)c1ccccc1Nc1nc(Nc2ccc(N3CCOCC3)cc2)ncc1[N+](=O)[O-],6.06
24,N#CC(NC(=O)C=Cc1ccccc1)c1ccccc1 (centres undefined),6.74
25,COc1ccc2nccc([C@@H](O)CN3[C@@H]4CC[C@H]3CC(NCc3ccc5c(n3)NC(=O)CS5)C4)c2n1 (some centres undefined),6.03

row,SMILES,pIC50
1,CCNC[C@@H](O)[C@H](Cc1ccccc1)NC(=O)c1cc2c3c(c1)c(CC)cn3CCS(=O)(=O)N2C,6.09
2,CCOc1cc(C)ccc1C1CCN(CCCCNC(=O)c2cnc(-c3ccc(C(F)(F)F)cc3)[nH]2)CC1,6.11
3,O=C(N[C@@H](Cc1ccccc1)[C@H](O)CNCCC(F)(F)F)c1cccc(OCC2CC2)c1,6.21
4,NC1CCN(Cc2ccc(-c3ccc(-c4nc5ccc(F)cc5[nH]4)cc3)cc2)C1 (centres undefined),6.74
5,CN1CCC(c2cc3c(cc2Br)CCN3C(=O)Nc2ccc(-c3ccncc3)c(Cl)c2)CC1,6.00
6,CN1CCN(c2ccnc3ccc(NC(=O)Cc4ccc(OCc5ccccc5)cc4)cc23)CC1,6.20
7,O=C(N[C@@H](Cc1ccccc1)[C@H](O)CNC1CCCc2ccccc21)c1cc(C2CCCC2)cc(N2CCCC2=O)c1 (some centres undefined),6.80
8,O=C(Nc1ccc(C(F)(F)F)cc1)c1ccc(S(=O)(=O)NC2CCN(CC3CCCCC3)C2)cc1 (centres undefined),6.14
9,Cc1nc2ccc3ccc(CNc4ccc(C(=O)N[C@@H](CCC(=O)O)C(=O)O)c(F)c4)cc3c2c(=O)[nH]1,6.40
10,COc1ccc(CNc2nc(Nc3cccc(C#N)c3)nc(Nc3cccc(C#N)c3)n2)cc1Cl,6.74
11,CCC(CC)n1cc2c(ccc3nc(N)nc(N)c32)n1,7.10
12,CCNC(C)(C)CN(Cc1ccc(-c2ccc(C(F)(F)F)cc2)cc1)C(=O)Cn1c(CCc2cccc(F)c2F)nc(=O)c2ccccc21,6.09
13,Cn1ncc2c3c(CCN4CCC(NCc5cc6c(cn5)OCCO6)CC4)c(Cl)cnc3ccc21,6.11
14,O=C(Nc1cccc(-c2cccc(-c3nc4ccccc4[nH]3)c2)c1)Nc1ccc(Cl)c(Cl)c1,6.89
15,O=C(NC=Nc1cc([N+](=O)[O-])c(-c2cccnc2)n1-c1ccc(O)cc1)c1ccccc1,6.52
16,c1ccc(Oc2ccc(Nc3ccnc4cc(-c5ccc(CN6CCNCC6)o5)ccc34)cc2)nc1,6.62
17,Oc1ccc2nc(N3CCNCC3)nc(NCCCc3ccccc3)c2c1,5.86
18,Cc1cccc(-c2ccc(NC(=O)C3CCN(Cc4cccc(O)c4)CC3)cc2)c1,6.01
19,COc1ccc(CN(C)CCCOc2ccc(NC(=O)C=Cc3ccc(C(C)(C)C)cc3)cc2)cc1OC,6.07
20,COc1cccc(CNC(=O)NC2CCN(c3ccnc(Nc4cc(OC)c(OC)c(OC)c4)n3)C2)c1 (centres undefined),6.15
21,CCCC1(NC[C@@H](O)[C@H](Cc2ccccc2)NC(=O)c2cc(NCC)cc(N3CCCCS3(=O)=O)c2)CCC1,6.14
22,O=C(N[C@@H](Cc1ccccc1)C(=O)O)c1cc(-c2ccc(F)cc2)no1 (tested in a mixture with another compound),6.10
23,O=C(OCc1ccccc1)N1CCc2c([nH]c3ccccc23)C1CCC(F)(F)F (centres undefined),6.38
24,CCc1ccc(CN2CCC(CNC(=O)c3cc(-c4ccccc4F)cs3)C2)cc1 (centres undefined),6.05
